For this test, the system named is P388 leukemia ip, CD2F1 mice, survival T/C. Kind of test: NCI In Vivo Anticancer Drug Screen. Data for tumor model P388 Leukemia (intraperitoneal) in CD2F1 (CDF1) mice. The conditions noted are these: endpoint: median survival time, higher = longer survival. Put shortly:
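Mice carrying the transplanted tumor received test compound or vehicle. Survival was recorded in each group, and the value is the treated-group measurement divided by that of the vehicle-treated control group.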

[1] abbreviates: dose: 50.0 mg/kg/injection, schedule: Q01DX009 (ip), vehicle: saline with Tween-80.
Setting [2] is: dose: 50.0 mg/kg/injection, schedule: Q01DX009 (ip), vehicle: Klucel (hydroxypropylcellulose) (HPC).
Where [3] appears, read: dose: 100.0 mg/kg/injection, schedule: Q01DX001 (ip), vehicle: saline.
Setting [4] is: dose: 200.0 mg/kg/injection, schedule: Q01DX001 (ip), vehicle: saline.
Setting [5] is: dose: 400.0 mg/kg/injection, schedule: Q01DX001 (ip), vehicle: saline.
Setting [6] is: dose: 50.0 mg/kg/injection, schedule: Q01DX005 (ip), vehicle: saline with Tween-80.
The mark [7] stands for this setting: dose: 100.0 mg/kg/injection, schedule: Q01DX005 (ip), vehicle: saline with Tween-80.
The mark [8] stands for this setting: dose: 200.0 mg/kg/injection, schedule: Q01DX005 (ip), vehicle: saline with Tween-80.

This is an account of results in PubChem BioAssay AID330 (DTP/NCI, 2004).

Structures are written as SMILES. Where “and” joins values, the source holds several entries; their conditions need not be identical. Equal values may be shown once. Inconclusive results and toxic doses are left out.

Turning to `CC(CCc1ccc(O)cc1)NCCc1ccc(O)c(O)c1` (stereo unspecified), the T/C reads like this: (dose: 50.0 mg/kg/injection, schedule: Q01DX009 (ip), vehicle: suspension in saline) 100 % of control; (dose: 100.0 mg/kg/injection, schedule: Q01DX009 (ip), vehicle: suspension in saline) 104 % of control; (dose: 200.0 mg/kg/injection, schedule: Q01DX009 (ip), vehicle: suspension in saline) 115 % of control.

Take `O=C(Nc1ccc(F)cc1)NN1CCOCC1`: the T/C is, setting by setting: (dose: 60.0 mg/kg/injection, schedule: Q01DX005 (ip), vehicle: saline with Tween-80) 102 % of control; (dose: 120.0 mg/kg/injection, schedule: Q01DX005 (ip), vehicle: saline with Tween-80) 104 % of control; (dose: 240.0 mg/kg/injection, schedule: Q01DX005 (ip), vehicle: saline with Tween-80) 103 % of control.

For the compound `O=[N+]([O-])c1cccc2c1CCCC2`, the T/C by setting is: (dose: 12.5 mg/kg/injection, schedule: Q01DX009 (ip), vehicle: saline with Tween-80) 100 % of control; (dose: 25.0 mg/kg/injection, schedule: Q01DX009 (ip), vehicle: saline with Tween-80) 109 % of control; under setting [1], 90 % of control.

Take `C=CCN(CC=C)P1(=O)NCCCO1` (stereo unspecified): the T/C was 103 % of control (dose: 50.0 mg/kg/injection, schedule: Q01DX005 (ip), vehicle: saline); 102 % of control (dose: 100.0 mg/kg/injection, schedule: Q01DX005 (ip), vehicle: saline); 105 % of control (dose: 200.0 mg/kg/injection, schedule: Q01DX005 (ip), vehicle: saline).

As to `CC(=O)OCC1OC(N(CCCl)CCCl)C(OC(C)=O)C(OC(C)=O)C1OC(C)=O` (stereo unspecified), the T/C reads like this: (dose: 1.25 mg/kg/injection, schedule: Q01DX005 (ip), vehicle: distilled water + Tween-80) 106 % of control; (dose: 2.5 mg/kg/injection, schedule: Q01DX005 (ip), vehicle: distilled water + Tween-80) 110 % of control and 115 % of control; (dose: 5.0 mg/kg/injection, schedule: Q01DX005 (ip), vehicle: distilled water + Tween-80) 110 % of control and 117 % of control and 119 % of control; (dose: 10.0 mg/kg/injection, schedule: Q01DX005 (ip), vehicle: distilled water + Tween-80) 173 % of control; (dose: 20.0 mg/kg/injection, schedule: Q01DX005 (ip), vehicle: distilled water + Tween-80) 187 % of control [middle of 4 runs]; (dose: 40.0 mg/kg/injection, schedule: Q01DX005 (ip), vehicle: distilled water + Tween-80) 199 % of control.

For `[O-][n+]1c2ccccc2[n+]([O-])c2c(O)cccc21`, the T/C is, setting by setting: (dose: 3.12 mg/kg/injection, schedule: Q01DX009 (ip), vehicle: distilled water + Tween-80) 113 % of control; (dose: 6.25 mg/kg/injection, schedule: Q01DX009 (ip), vehicle: distilled water + Tween-80) 114 % of control and 121 % of control; (dose: 12.5 mg/kg/injection, schedule: Q01DX009 (ip), vehicle: distilled water + Tween-80) 121 % of control; (dose: 25.0 mg/kg/injection, schedule: Q01DX009 (ip), vehicle: distilled water + Tween-80) 119 % of control and 122 % of control.

Turning to `CS(=O)(=O)OCC1NC(=O)C(COS(C)(=O)=O)NC1=O` (stereo unspecified), the T/C runs as follows: (dose: 50.0 mg/kg/injection, schedule: Q01DX009 (ip), vehicle: other) 106 % of control and 103 % of control; (dose: 100.0 mg/kg/injection, schedule: Q01DX009 (ip), vehicle: other) 98 % of control and 103 % of control; (dose: 200.0 mg/kg/injection, schedule: Q01DX009 (ip), vehicle: other) 107 % of control; (dose: 400.0 mg/kg/injection, schedule: Q01DX009 (ip), vehicle: other) 103 % of control.

Consider `O=c1[nH]c(=S)[nH]cc1Oc1ccc(I)cc1`, for which the T/C reads like this: (dose: 12.5 mg/kg/injection, schedule: Q01DX009 (ip), vehicle: Klucel (hydroxypropylcellulose) (HPC)) 106 % of control; (dose: 25.0 mg/kg/injection, schedule: Q01DX009 (ip), vehicle: Klucel (hydroxypropylcellulose) (HPC)) 107 % of control; under setting [2], 104 % of control.

As to `CO/C=N/c1cn2c(n1)CN=C2`, the T/C is 102 % of control under setting [3], 95 % of control under setting [4] and 96 % of control under setting [5].

As for `Cc1cccc2c(Nc3ccc(NS(C)(=O)=O)cc3)c3ccccc3nc12`, the T/C (dose: 0.53 mg/kg/injection, schedule: Q01DX009 (ip), vehicle: saline) was 111 % of control; the T/C (dose: 0.8 mg/kg/injection, schedule: Q01DX009 (ip), vehicle: saline) was 124 % of control; the T/C (dose: 7.5 mg/kg/injection, schedule: Q01DX009 (ip), vehicle: saline with Tween-80) is 166 % of control; the T/C (dose: 33.0 mg/kg/injection, schedule: Q04DX003 (ip), vehicle: saline with Tween-80) is 168 % of control; the T/C (dose: 50.0 mg/kg/injection, schedule: Q04DX003 (ip), vehicle: saline with Tween-80) is 163 % of control; the T/C (dose: 75.0 mg/kg/injection, schedule: Q04DX003 (ip), vehicle: saline with Tween-80) is 163 % of control and 181 % of control. Moreover, the T/C was 181 % of control (dose: 150.0 mg/kg/injection, schedule: Q04DX003 (ip), vehicle: saline with Tween-80) and 122 % of control (dose: 300.0 mg/kg/injection, schedule: Q04DX003 (ip), vehicle: saline with Tween-80).

With `O=C(O)c1cc(Nc2ccnc3cc(Cl)ccc23)ccc1O`, the T/C is 98 % of control (dose: 100.0 mg/kg/injection, schedule: Q04DX002 (ip), vehicle: saline with Tween-80); 97 % of control (dose: 200.0 mg/kg/injection, schedule: Q04DX002 (ip), vehicle: saline with Tween-80); 98 % of control (dose: 400.0 mg/kg/injection, schedule: Q04DX002 (ip), vehicle: saline with Tween-80).

On to `O=C(COc1ccc(Cl)cc1Cl)Nc1ccccc1F`, for which the T/C runs as follows: (dose: 100.0 mg/kg/injection, schedule: Q04DX003 (ip), vehicle: saline with Tween-80) 100 % of control; (dose: 200.0 mg/kg/injection, schedule: Q04DX003 (ip), vehicle: saline with Tween-80) 100 % of control; (dose: 400.0 mg/kg/injection, schedule: Q04DX003 (ip), vehicle: saline with Tween-80) 100 % of control.

`COC(=O)/C(C#N)=C1\C(=O)OCC1(C)C`: the T/C reads like this: (dose: 100.0 mg/kg/injection, schedule: Q04DX003 (ip), vehicle: saline) 104 % of control; (dose: 200.0 mg/kg/injection, schedule: Q04DX003 (ip), vehicle: saline) 94 % of control; (dose: 400.0 mg/kg/injection, schedule: Q04DX003 (ip), vehicle: saline) 98 % of control.

As to `CC(C)CN1CC(=O)N2CCCC(c3ccccc3)N2C(=O)C1` (stereo unspecified), the T/C by setting is: under setting [6], 95 % of control; under setting [7], 115 % of control; under setting [8], 112 % of control.

Consider `CCC[CH2][Sn]([CH2]CCC)[O][Sn]([Cl])([CH2]CCC)[CH2]CCC`, for which the T/C (dose: 0.79 mg/kg/injection, schedule: Q01DX009 (ip), vehicle: saline) is 100 % of control; the T/C (dose: 1.56 mg/kg/injection, schedule: Q01DX009 (ip), vehicle: saline with Tween-80) is 100 % of control; the T/C (dose: 1.56 mg/kg/injection, schedule: Q01DX009 (ip), vehicle: saline) was 100 % of control; the T/C (dose: 3.12 mg/kg/injection, schedule: Q01DX009 (ip), vehicle: saline with Tween-80) was 101 % of control and 113 % of control; the T/C (dose: 3.12 mg/kg/injection, schedule: Q01DX009 (ip), vehicle: saline) was 97 % of control; the T/C (dose: 6.25 mg/kg/injection, schedule: Q01DX009 (ip), vehicle: saline with Tween-80) is 100 % of control. The T/C (dose: 6.25 mg/kg/injection, schedule: Q01DX009 (ip), vehicle: saline) was 88 % of control.

As to `CC(/C=N\NC(=S)SCc1ccccc1)=N/NC(N)=S`, the T/C was 106 % of control under setting [3], 106 % of control under setting [4] and 103 % of control under setting [5].

For the compound `CCCCCNCC(=O)N1CCCC1C(=O)OC(C)(C)C` (stereo unspecified), the T/C runs as follows: under setting [6], 97 % of control; under setting [7], 105 % of control; under setting [8], 103 % of control.

On to `N#CC1C(=O)NC(=S)NC1c1ccccc1` (stereo unspecified), for which the T/C is, setting by setting: under setting [2], 95 % of control; (dose: 100.0 mg/kg/injection, schedule: Q01DX009 (ip), vehicle: Klucel (hydroxypropylcellulose) (HPC)) 101 % of control; (dose: 200.0 mg/kg/injection, schedule: Q01DX009 (ip), vehicle: Klucel (hydroxypropylcellulose) (HPC)) 98 % of control.

As to `Brc1ccc(N=C=C(c2ccccc2)c2ccccc2)cc1`, the T/C by setting is: under setting [1], 95 % of control; (dose: 100.0 mg/kg/injection, schedule: Q01DX009 (ip), vehicle: saline with Tween-80) 100 % of control; (dose: 200.0 mg/kg/injection, schedule: Q01DX009 (ip), vehicle: saline with Tween-80) 104 % of control.
